Source: ChEMBL document CHEMBL1157922, “Design of new dopamine D2 receptor ligands: biosynthesis and pharmacological evaluation of the hydroxylated metabolite of LASSBio-581” (Bioorg Med Chem Lett, 2010)

How the values were obtained:
[1] = Displacement of [3H]YM-9151-2 from D2 like receptor in rat striatal membrane; assay type: cell membranes, Striatum
[2] = biological target: 5-hydroxytryptamine receptor 2A (Rattus norvegicus, UniProt P14842); assay: Displacement of [3H]ketanserin from 5HT2A receptor in rat cortex membrane; assay type: cell membranes
5-hydroxytryptamine receptor 2A, sequence (P14842 whole entry): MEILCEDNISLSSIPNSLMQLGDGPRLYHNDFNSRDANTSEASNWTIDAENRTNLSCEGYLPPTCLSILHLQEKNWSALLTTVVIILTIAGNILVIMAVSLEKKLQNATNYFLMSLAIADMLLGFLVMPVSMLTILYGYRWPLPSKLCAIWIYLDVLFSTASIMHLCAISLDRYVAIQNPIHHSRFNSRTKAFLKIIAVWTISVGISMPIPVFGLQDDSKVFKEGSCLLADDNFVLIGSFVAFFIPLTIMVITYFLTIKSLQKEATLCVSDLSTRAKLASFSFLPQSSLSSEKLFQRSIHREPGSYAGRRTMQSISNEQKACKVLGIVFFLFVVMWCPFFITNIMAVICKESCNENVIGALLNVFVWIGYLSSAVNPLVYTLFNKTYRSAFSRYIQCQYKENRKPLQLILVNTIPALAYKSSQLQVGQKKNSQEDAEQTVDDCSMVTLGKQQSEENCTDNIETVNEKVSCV

| Ki [1] [nM] | Ki [2] [nM] | SMILES |
| --- | --- | --- |
| 1700 | – | Oc1ccc(N2CCN(Cc3cn(-c4ccc(Cl)cc4)nn3)CC2)cc1 |
| 950 | 11000 | Clc1ccc(-n2cc(CN3CCN(c4ccccc4)CC3)nn2)cc1 |
